Experimental data taken from the NIST ThermoML archive (doi:10.1021/je900596d).
± gives the expanded uncertainty stated by the source.

Conditions: Vibrating tube method

FC(F)=C(F)C(F)(F)F [hexafluoropropene]
Conditions | mass density [kg/m3]
303.28 K, 499 kPa, Fluid (supercritical or subcritical phases) | 33.24 ± 0.05
303.28 K, 504.3 kPa, Fluid (supercritical or subcritical phases) | 33.56 ± 0.06
303.28 K, 509.6 kPa, Fluid (supercritical or subcritical phases) | 33.97 ± 0.06
303.28 K, 514.9 kPa, Fluid (supercritical or subcritical phases) | 34.46 ± 0.06
303.28 K, 525.4 kPa, Fluid (supercritical or subcritical phases) | 35.23 ± 0.06
303.28 K, 530.6 kPa, Fluid (supercritical or subcritical phases) | 35.69 ± 0.06
303.28 K, 535.9 kPa, Fluid (supercritical or subcritical phases) | 36.01 ± 0.06
303.28 K, 541.1 kPa, Fluid (supercritical or subcritical phases) | 36.49 ± 0.06
303.28 K, 546.3 kPa, Fluid (supercritical or subcritical phases) | 36.92 ± 0.06
303.28 K, 551.5 kPa, Fluid (supercritical or subcritical phases) | 37.29 ± 0.06
303.28 K, 556.7 kPa, Fluid (supercritical or subcritical phases) | 37.7 ± 0.06
303.28 K, 572.3 kPa, Fluid (supercritical or subcritical phases) | 38.97 ± 0.06
303.28 K, 577.4 kPa, Fluid (supercritical or subcritical phases) | 39.31 ± 0.06
303.28 K, 582.5 kPa, Fluid (supercritical or subcritical phases) | 39.71 ± 0.06
303.28 K, 587.5 kPa, Fluid (supercritical or subcritical phases) | 40.14 ± 0.06
303.28 K, 597.7 kPa, Fluid (supercritical or subcritical phases) | 41.02 ± 0.06
303.28 K, 605.4 kPa, Fluid (supercritical or subcritical phases) | 41.64 ± 0.07
303.28 K, 610.5 kPa, Fluid (supercritical or subcritical phases) | 42.03 ± 0.07
303.28 K, 615.6 kPa, Fluid (supercritical or subcritical phases) | 42.45 ± 0.07
303.28 K, 625.6 kPa, Fluid (supercritical or subcritical phases) | 43.25 ± 0.07
303.28 K, 630.6 kPa, Fluid (supercritical or subcritical phases) | 43.67 ± 0.07
303.28 K, 635.6 kPa, Fluid (supercritical or subcritical phases) | 44.16 ± 0.07
303.28 K, 640.7 kPa, Fluid (supercritical or subcritical phases) | 44.51 ± 0.07
303.28 K, 650.7 kPa, Fluid (supercritical or subcritical phases) | 45.35 ± 0.07
303.28 K, 655.6 kPa, Fluid (supercritical or subcritical phases) | 45.82 ± 0.07
303.28 K, 660.6 kPa, Fluid (supercritical or subcritical phases) | 46.19 ± 0.07
303.28 K, 665.5 kPa, Fluid (supercritical or subcritical phases) | 46.57 ± 0.07
303.28 K, 670.5 kPa, Fluid (supercritical or subcritical phases) | 47.07 ± 0.07
303.28 K, 675.4 kPa, Fluid (supercritical or subcritical phases) | 47.49 ± 0.07
303.28 K, 680.3 kPa, Fluid (supercritical or subcritical phases) | 47.87 ± 0.08
303.28 K, 685.2 kPa, Fluid (supercritical or subcritical phases) | 48.24 ± 0.08
303.28 K, 690 kPa, Fluid (supercritical or subcritical phases) | 48.67 ± 0.08
303.28 K, 694.8 kPa, Fluid (supercritical or subcritical phases) | 49.19 ± 0.08
303.28 K, 709.3 kPa, Fluid (supercritical or subcritical phases) | 50.39 ± 0.08
303.28 K, 714.1 kPa, Fluid (supercritical or subcritical phases) | 50.86 ± 0.08
303.28 K, 718.9 kPa, Fluid (supercritical or subcritical phases) | 51.33 ± 0.08
303.28 K, 723.7 kPa, Fluid (supercritical or subcritical phases) | 51.66 ± 0.08
303.28 K, 728.6 kPa, Fluid (supercritical or subcritical phases) | 52.22 ± 0.08
303.28 K, 734.4 kPa, Fluid (supercritical or subcritical phases) | 52.63 ± 0.08
303.28 K, 746.1 kPa, Fluid (supercritical or subcritical phases) | 53.68 ± 0.08
303.28 K, 750.9 kPa, Fluid (supercritical or subcritical phases) | 54.09 ± 0.08
303.28 K, 756.7 kPa, Fluid (supercritical or subcritical phases) | 54.65 ± 0.08
303.28 K, 768.4 kPa, Fluid (supercritical or subcritical phases) | 55.74 ± 0.09
303.28 K, 774.1 kPa, Fluid (supercritical or subcritical phases) | 56.3 ± 0.09
303.28 K, 779.9 kPa, Fluid (supercritical or subcritical phases) | 56.84 ± 0.09
303.28 K, 785.6 kPa, Fluid (supercritical or subcritical phases) | 57.36 ± 0.09
303.28 K, 791.2 kPa, Fluid (supercritical or subcritical phases) | 57.85 ± 0.09
303.28 K, 796.9 kPa, Fluid (supercritical or subcritical phases) | 58.41 ± 0.09
303.28 K, 802.6 kPa, Fluid (supercritical or subcritical phases) | 58.95 ± 0.09
303.28 K, 808.2 kPa, Fluid (supercritical or subcritical phases) | 59.58 ± 0.09
303.28 K, 813.9 kPa, Fluid (supercritical or subcritical phases) | 60.04 ± 0.09
303.28 K, 823.6 kPa, Fluid (supercritical or subcritical phases) | 61.02 ± 0.09
303.28 K, 828.8 kPa, Fluid (supercritical or subcritical phases) | 61.46 ± 0.09
303.28 K, 838 kPa, Fluid (supercritical or subcritical phases) | 62.51 ± 0.11
303.28 K, 841.4 kPa, Fluid (supercritical or subcritical phases) | 62.82 ± 0.12
303.28 K, 842 kPa, Fluid (supercritical or subcritical phases) | 62.87 ± 0.12
303.28 K, 842.4 kPa, Fluid (supercritical or subcritical phases) | 62.98 ± 0.12
303.28 K, 843.8 kPa, Fluid (supercritical or subcritical phases) | 63.1 ± 0.1
303.28 K, 844.7 kPa, Fluid (supercritical or subcritical phases) | 63.37 ± 0.1
303.28 K, 845.6 kPa, Fluid (supercritical or subcritical phases) | 63.62 ± 0.1
303.28 K, 846.3 kPa, Fluid (supercritical or subcritical phases) | 63.97 ± 0.11
303.28 K, 846.8 kPa, Fluid (supercritical or subcritical phases) | 64.22 ± 0.11
303.28 K, 847.7 kPa, Fluid (supercritical or subcritical phases) | 64.87 ± 0.12
303.28 K, 848.2 kPa, Fluid (supercritical or subcritical phases) | 65.17 ± 0.12
303.36 K, 851.7 kPa, Liquid | 1288.08 ± 1.3
303.36 K, 854.5 kPa, Liquid | 1288.17 ± 1.3
303.36 K, 856.9 kPa, Liquid | 1288.04 ± 1.3
303.36 K, 858.9 kPa, Liquid | 1288.19 ± 1.3
303.36 K, 870 kPa, Liquid | 1288.22 ± 1.3
303.36 K, 873.5 kPa, Liquid | 1288.36 ± 1.3
303.36 K, 880.9 kPa, Liquid | 1288.43 ± 1.3
303.36 K, 885.8 kPa, Liquid | 1288.43 ± 1.3
303.36 K, 887.7 kPa, Liquid | 1288.47 ± 1.3
303.36 K, 903 kPa, Liquid | 1288.59 ± 1.3
303.36 K, 908.2 kPa, Liquid | 1288.61 ± 1.3
303.36 K, 911.2 kPa, Liquid | 1288.78 ± 1.3
303.36 K, 918.3 kPa, Liquid | 1288.76 ± 1.3
303.36 K, 927 kPa, Liquid | 1288.93 ± 1.3
303.36 K, 935.5 kPa, Liquid | 1288.99 ± 1.3
303.36 K, 940.8 kPa, Liquid | 1288.91 ± 1.3
303.36 K, 943.4 kPa, Liquid | 1289.1 ± 1.3
303.36 K, 946.1 kPa, Liquid | 1289.23 ± 1.3
303.36 K, 954.6 kPa, Liquid | 1289.18 ± 1.3
303.36 K, 959.8 kPa, Liquid | 1289.24 ± 1.3
303.36 K, 965.5 kPa, Liquid | 1289.39 ± 1.3
303.36 K, 974 kPa, Liquid | 1289.46 ± 1.3
303.36 K, 983.2 kPa, Liquid | 1289.54 ± 1.3
303.36 K, 988.8 kPa, Liquid | 1289.67 ± 1.3
303.36 K, 995.6 kPa, Liquid | 1289.74 ± 1.3
303.36 K, 1001.4 kPa, Liquid | 1289.81 ± 1.3
303.36 K, 1006.1 kPa, Liquid | 1289.98 ± 1.3
303.36 K, 1016.7 kPa, Liquid | 1289.99 ± 1.3
303.36 K, 1021.3 kPa, Liquid | 1290 ± 1.3
303.36 K, 1025.8 kPa, Liquid | 1290.01 ± 1.3
303.36 K, 1030.5 kPa, Liquid | 1290.08 ± 1.3
303.36 K, 1045.7 kPa, Liquid | 1290.29 ± 1.3
303.36 K, 1063.4 kPa, Liquid | 1290.5 ± 1.3
303.36 K, 1068.6 kPa, Liquid | 1290.58 ± 1.3
303.36 K, 1082.5 kPa, Liquid | 1290.71 ± 1.3
303.36 K, 1095.4 kPa, Liquid | 1290.76 ± 1.3
303.36 K, 1106.3 kPa, Liquid | 1291.06 ± 1.3
303.36 K, 1118.1 kPa, Liquid | 1291.22 ± 1.3
303.36 K, 1152.1 kPa, Liquid | 1291.56 ± 1.3
303.36 K, 1163 kPa, Liquid | 1291.61 ± 1.3
303.36 K, 1174.7 kPa, Liquid | 1291.89 ± 1.3
303.36 K, 1188.2 kPa, Liquid | 1292.04 ± 1.3
303.36 K, 1203.3 kPa, Liquid | 1292.26 ± 1.3
303.36 K, 1216 kPa, Liquid | 1292.23 ± 1.3
303.36 K, 1235 kPa, Liquid | 1292.43 ± 1.3
303.36 K, 1249 kPa, Liquid | 1292.78 ± 1.3
303.36 K, 1261.3 kPa, Liquid | 1292.76 ± 1.3
303.36 K, 1289 kPa, Liquid | 1293.23 ± 1.3
303.36 K, 1305.6 kPa, Liquid | 1293.27 ± 1.3
303.36 K, 1340.2 kPa, Liquid | 1293.72 ± 1.3
303.36 K, 1361.8 kPa, Liquid | 1293.94 ± 1.3
303.36 K, 1383.4 kPa, Liquid | 1294.19 ± 1.3
303.36 K, 1404.6 kPa, Liquid | 1294.41 ± 1.3
303.36 K, 1448.9 kPa, Liquid | 1294.92 ± 1.3
303.36 K, 1483.7 kPa, Liquid | 1295.38 ± 1.3
303.36 K, 1495.8 kPa, Liquid | 1295.69 ± 1.3
303.36 K, 1517.4 kPa, Liquid | 1295.82 ± 1.3
303.36 K, 1540.3 kPa, Liquid | 1296.17 ± 1.3
303.36 K, 1561.5 kPa, Liquid | 1296.23 ± 1.3
303.36 K, 1582.1 kPa, Liquid | 1296.56 ± 1.3
303.36 K, 1615.7 kPa, Liquid | 1296.92 ± 1.3
303.36 K, 1637.2 kPa, Liquid | 1297.09 ± 1.3
303.36 K, 1659.1 kPa, Liquid | 1297.43 ± 1.3
303.36 K, 1680.6 kPa, Liquid | 1297.48 ± 1.3
303.36 K, 1726.5 kPa, Liquid | 1298.26 ± 1.3
303.36 K, 1771 kPa, Liquid | 1298.55 ± 1.3
303.36 K, 1793.6 kPa, Liquid | 1298.76 ± 1.3
303.36 K, 1815.1 kPa, Liquid | 1299.1 ± 1.3
303.36 K, 1837.5 kPa, Liquid | 1299.36 ± 1.3
303.36 K, 1861.7 kPa, Liquid | 1299.58 ± 1.3
